Experimental data published in patent US9273003B2, “Methods of treating lymphoma and rheumatoid arthritis with cyclopentyl (2S)-cyclohexyl[({6-[3-(hydroxyamino)-3-oxopropyl]pyridin-3-yl}methyl)amino]acetate” (GlaxoSmithKline Intellectual Property Development Limited, priority 2006, dated 2016).

Key:
U937 cells = test: U937 cell inhibition assay (WST-1 cell viability); assay type: cell-based; conditions: Homo sapiens, U-937; U937 cells; IC50 allocated to ranges; read-out: U937 activity
How it was run: (§1)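 Log-phase cells seeded at 1000-2000/well, grown 24 h, then exposed to compound for 72-96 h before WST-1 viability readout. Eight concentrations (top 10 μM final, 3-fold steps), 6 replicates; % inhibition versus DMSO, IC50 by sigmoidal variable-slope fit.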

[1] = molecular target: histone deacetylase activity (HeLa nuclear extract); test: HDAC fluorescent activity assay (Fluor de Lys, Biomol); assay type: biochemical; conditions: IC50 allocated to ranges, read-out: HDAC activity
How it was run: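 HeLa nuclear extract as HDAC source incubated with acetyl-lysine Fluor de Lys substrate ± inhibitor; developer then releases fluorophore from deacetylated substrate. Activity as % of vehicle control after no-enzyme background subtraction; IC50 from eight-point variable-slope sigmoidal fit.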

HeLa cells = test: HeLa cell inhibition assay (sulphorhodamine B cell viability); assay type: cell-based; conditions: Homo sapiens, IC50 allocated to ranges
Method: HeLa cells growing in log phase were harvested and seeded at 1000 cells/well (200 μl final volume) into 96-well tissue culture plates. Following 24 h of cell growth cells were treated with compounds (final concentration of 20 μM). Plates were then re-incubated for a further 72 h before a sulphorhodamine B (SRB) cell viability assay was conducted according to the methodology described by Skehan et al, J. Natl. Canc. Inst., 1990, 82, 1107-1112.
Data were expressed as a percentage inhibition of the control, measured in the absence of inhibitor, as follows:— % inhibition=100−[(S^i/S^o)×100] where S^i is the signal in the presence of inhibitor and S^o is the signal in the presence of DMSO.
IC50 values were determined by non-linear regression analysis, after fitting the results of eight data points to the equation for sigmoidal dose response with variable slope (% activity against log concentration of Compound), using Graphpad Prism software.

HUT78 cells = test: HUT cell inhibition assay (WST-1 cell viability); assay type: cell-based; conditions: Homo sapiens; HUT78 cells; IC50 allocated to ranges; read-out: HUT activity
How it was run: as §1

SMILES	IC50 (U937 cells) [nM]	IC50 [1] [nM]	IC50 (HeLa cells) [nM]	IC50 (HUT78 cells) [nM]
O=C(/C=C/c1cccc(C(=O)N[C@H](C(=O)OC2CCCC2)C2CCCCC2)c1)NO [Example 5, Cyclopentyl (2S)-cyclohexyl({3-[(1E)-3-(hydroxyamino)-3-oxoprop-1-en-1-yl]benzoyl}amino)acetate]	331 to 3300	< 100	331 to 3300	331 to 3300
CC(C)C[C@H](NCc1ccc(CCC(=O)NO)cc1)C(=O)OC1CC2CCC1C2 (stereo partly drawn) [Example 36, Bicyclo[2.2.1]hept-2-yl N-{4-[3-(hydroxyamino)-3-oxopropyl]benzyl}-L-leucinate]	< 330	101 to 1000	331 to 3300	< 330
CC(C)C[C@H](NC(=O)c1ccc(/C=C/C(=O)NO)cc1)C(=O)OC1CCCC1 [Example 8, Cyclopentyl N-{4-[(1E)-3-(hydroxyamino)-3-oxoprop-1-en-1-yl]benzoyl}-L-leucinate]	331 to 3300	101 to 1000	331 to 3300	331 to 3300
O=C(/C=C/c1ccc(CN[C@H](C(=O)OC2CC3CCC2C3)C2CCCCC2)cc1)NO (stereo partly drawn) [Example 26, Bicyclo[2.2.1]hept-2-yl (2S)-cyclohexyl({4-[(1E)-3-(hydroxyamino)-3-oxoprop-1-en-1-yl]benzyl}amino)acetate]	< 330	101 to 1000	331 to 3300	331 to 3300
CC1CCC(OC(=O)[C@@H](NCc2ccc(/C=C/C(=O)NO)cc2)C2CCCCC2)C1 (stereo partly drawn) [Example 28, 3-Methylcyclopentyl (2S)-cyclohexyl({4-[(1E)-3-(hydroxyamino)-3-oxoprop-1-en-1-yl]benzyl}amino)acetate]	< 330	101 to 1000	331 to 3300	331 to 3300

Second part, led by results:

IC50 (U937 cells) [nM]	IC50 [1] [nM]	IC50 (HeLa cells) [nM]	SMILES	IC50 (HUT78 cells) [nM]
< 330	101 to 1000	> 3300	O=C(/C=C/c1ccc(CN[C@H](C(=O)OC2CCCC2)c2ccccc2)cc1)NO [Example 17, Cyclopentyl (2S)-({4-[(1E)-3-(hydroxyamino)-3-oxoprop-1-en-1-yl]benzyl}amino)(phenyl)acetate]	331 to 3300
331 to 3300	101 to 1000	331 to 3300	O=C(/C=C/c1ccc(CN2CCC(CN[C@H](C(=O)OC3CCCC3)C3CCCCC3)CC2)cc1)NO [Example 83, Cyclopentyl (2S)-cyclohexyl{[(1-{4-[(1E)-3-(hydroxyamino)-3-oxoprop-1-en-1-yl]benzyl}piperidin-4-yl)methyl]amino}acetate]	< 330
331 to 3300	< 100	331 to 3300	O=C(/C=C/c1ccc(CN2CCC(CN[C@H](C(=O)OC3CCCC3)c3ccccc3)CC2)cc1)NO [Example 82, Cyclopentyl (2S)-{[(1-{4-[(1E)-3-(hydroxyamino)-3-oxoprop-1-en-1-yl]benzyl}piperidin-4-yl)methyl]amino}(phenyl)acetate]	331 to 3300
< 330	101 to 1000	331 to 3300	CC(C)(C)OC[C@H](NC1CCN(Cc2ccc(/C=C/C(=O)NO)cc2)CC1)C(=O)OC1CCCC1 [Example 81, Cyclopentyl O-tert-butyl-N-(1-{4-[(1E)-3-(hydroxyamino)-3-oxoprop-1-en-1-yl]benzyl}piperidin-4-yl)-L-serinate]	< 330
< 330	< 100	331 to 3300	CC(C)C[C@H](NCc1ccc(/C=C/C(=O)NO)cc1)C(=O)OC1CCCC1 [Example 15, Cyclopentyl N-{4-[(1E)-3-(hydroxyamino)-3-oxoprop-1-en-1-yl]benzyl}-L-leucinate]	< 330
331 to 3300	101 to 1000	> 3300	O=C(/C=C/c1ccc(CN[C@@H](C(=O)OC2CCCC2)C2CCCCC2)cc1)NO [Example 19, Cyclopentyl (2R)-cyclohexyl({4-[(1E)-3-(hydroxyamino)-3-oxoprop-1-en-1-yl]benzyl}amino)acetate]	> 3300
